Source: ChEMBL document CHEMBL1129805, “Novel conformationally constrained analogues of diacylglycerol. Protein kinase C binding affinity of simplified compounds based on a 6-membered lactam moiety” (Bioorg Med Chem Lett, 1997)

Tests used:
[1] = biological target: Protein kinase C delta type (Homo sapiens, UniProt Q05655); test: Displacement of [3H]PDBu from Protein kinase C delta
HL-60 [2] = test: Effective dose required to […] the differentiation to monocytes of HL-60 cells; Weaker activity; format: functional; details: Homo sapiens, read-out: ED50 (the source's name)
HL-60 [3] = test: Effective dose required to […] the differentiation to monocytes of HL-60 cells; Inactive; format: functional; details: Homo sapiens, read-out: ED50 (the source's name)
HL-60 [4] = test: Effective dose required to […] the differentiation to monocytes of HL-60 cells; format: functional; details: Homo sapiens, read-out: ED50 (the source's name)

Chain of Protein kinase C delta type (Q05655 whole entry): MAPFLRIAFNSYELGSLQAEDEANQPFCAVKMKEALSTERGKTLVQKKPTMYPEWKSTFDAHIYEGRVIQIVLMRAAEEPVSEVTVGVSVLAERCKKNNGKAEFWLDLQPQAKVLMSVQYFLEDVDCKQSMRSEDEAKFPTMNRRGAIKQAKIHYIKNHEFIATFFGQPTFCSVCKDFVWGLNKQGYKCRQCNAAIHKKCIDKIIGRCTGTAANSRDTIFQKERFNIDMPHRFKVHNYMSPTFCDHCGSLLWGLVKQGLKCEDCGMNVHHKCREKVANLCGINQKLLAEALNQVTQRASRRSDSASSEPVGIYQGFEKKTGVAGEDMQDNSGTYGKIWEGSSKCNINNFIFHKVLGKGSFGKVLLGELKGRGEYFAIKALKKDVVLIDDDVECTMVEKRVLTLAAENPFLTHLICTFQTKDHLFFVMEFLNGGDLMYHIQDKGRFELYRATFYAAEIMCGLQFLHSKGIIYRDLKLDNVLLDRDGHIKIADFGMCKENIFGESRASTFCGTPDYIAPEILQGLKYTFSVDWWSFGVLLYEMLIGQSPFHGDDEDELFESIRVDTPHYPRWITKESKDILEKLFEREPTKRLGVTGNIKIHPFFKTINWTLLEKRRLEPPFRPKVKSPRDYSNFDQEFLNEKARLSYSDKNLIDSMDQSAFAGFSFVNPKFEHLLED

SMILES: CCCCCCCCCCCCCCN1C[C@@H](CO)NC(=O)[C@H]1C(C)C
- Ki [1]: 6.5 µM

SMILES: CCCCCCCCCCCCCCN1C[C@H](CO)NC(=O)[C@@H]1C(C)C
- EC50 (HL-60 [2]): 1 µM
- Ki [1]: 2.7 µM

SMILES: CCCCCCCCCCCCCCN1C[C@H](CO)NC(=O)[C@H]1C(C)C
- EC50 (HL-60 [3]): > 5 µM
- Ki [1]: 12 µM

SMILES: CCCCCCCCCCCCCCN1C[C@@H](CO)NC(=O)[C@@H]1C(C)C
- EC50 (HL-60 [4]): 0.2 µM
- Ki [1]: 0.29 µM
